Reference: BindingDB's records for doi:10.1016/j.bioorg.2016.09.007 (Shaoyang University, 2016)

These compounds were tested against T1, Polyphenol oxidase 1 [61-568] (Agaricus bisporus, UniProt Q00024) (assay: Tyrosinase Activity Assay). Conditions: pH 6.8.
T1 construct: 61-568
T1 sequence (Q00024 whole entry): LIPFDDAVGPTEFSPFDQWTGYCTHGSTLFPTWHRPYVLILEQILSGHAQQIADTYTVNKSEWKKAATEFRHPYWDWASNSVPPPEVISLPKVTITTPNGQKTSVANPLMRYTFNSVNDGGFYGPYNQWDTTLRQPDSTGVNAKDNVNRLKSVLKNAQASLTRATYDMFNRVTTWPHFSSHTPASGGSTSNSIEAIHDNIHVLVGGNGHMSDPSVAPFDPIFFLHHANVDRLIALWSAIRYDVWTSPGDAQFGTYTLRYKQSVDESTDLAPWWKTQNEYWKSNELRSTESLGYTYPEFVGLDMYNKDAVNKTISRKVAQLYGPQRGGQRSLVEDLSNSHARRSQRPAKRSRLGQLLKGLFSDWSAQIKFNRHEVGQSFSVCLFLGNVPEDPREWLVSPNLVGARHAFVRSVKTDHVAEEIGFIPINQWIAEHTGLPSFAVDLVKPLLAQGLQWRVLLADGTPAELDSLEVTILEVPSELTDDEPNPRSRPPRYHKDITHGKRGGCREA
Procedure: Briefly, 1,3,4-thiadiazole derivatives were tested for diphenolase inhibitory activity of tyrosinase using L-DOPA (dihydroxyphenylalanine) as substrate. All the compounds were dissolved in DMSO and its final concentration in the reaction mixture was 2.0%. Thirty units of mushroom tyrosinase (0.5 mg/ml) were first pre-incubated with the compounds, in 50 mM phosphate buffer (pH 6.8), for 10 min at 25 °C. Then the L-DOPA (0.5 mM) was added to the reaction mixture and the enzyme reaction was continuously monitored by measuring the change in absorbance at 475 nm of formation of the DOPA chrome for 1 min.
`COc1cc(OC)c(C=Nc2nnc(S)s2)c(OC)c1` [2-((2,4,6-Trimethoxybenzylidene)amino)-5-mercapto-1,3,4-thiadiazole (16)] showed an IC50 of 0.907 µM. With `Fc1ccccc1C=Nc1nnc(S)s1` [2-((2-Fluorobenzylidene)amino)-5-mercapto-1,3,4-thiadiazole (2)] the IC50 was 0.765 µM. `COc1ccccc1C=Nc1nnc(S)s1` [2-((2-Methoxybenzylidene)amino)-5-mercapto-1,3,4-thiadiazole (10)] gave an IC50 of 0.733 µM. `O=[N+]([O-])c1ccccc1C=Nc1nnc(S)s1` [2-((2-Nitrobenzylidene)amino)-5-mercapto-1,3,4-thiadiazole (9)] showed an IC50 of 0.671 µM. `Sc1nnc(N=Cc2ccc(Cl)c(Cl)c2)s1` [2-((3,4-Dichlorobenzylidene)amino)-5-mercapto-1,3,4-thiadiazole (5)] showed an IC50 of 3.62 µM. For `COc1cc(C=Nc2nnc(S)s2)cc(OC)c1` [2-((3,5-Dimethoxybenzylidene)amino)-5-mercapto-1,3,4-thiadiazole (11)], the IC50 was 5.35 µM. `Sc1nnc(N=Cc2cccc(Cl)c2)s1` [2-((3-Chlorobenzylidene)amino)-5-mercapto-1,3,4-thiadiazole (3)] was tested, and the IC50 was 4.75 µM. For `CC(C)(C)c1ccc(C=Nc2nnc(S)s2)cc1` [2-((4-(Tert-butyl)benzylidene)amino)-5-mercapto-1,3,4-thiadiazole (8)], the IC50 was 1.39 µM. `Sc1nnc(N=Cc2ccc(Cl)cc2)s1` [2-((4-Chlorobenzylidene)amino)-5-mercapto-1,3,4-thiadiazole (4)] was tested, and the IC50 was 2.46 µM. Compound `Oc1ccc(Cl)cc1C=Nc1nnc(SCc2ccccc2)s1` [2-(((5-(Benzylthio)-1,3,4-thiadiazol-2-yl)imino)methyl)-4-chlorophenol (17)] has an IC50 of 247 µM. With `Oc1ccccc1C=Nc1nnc(S)s1` [2-(((5-Mercapto-1,3,4-thiadiazol-2-yl)imino)methyl)phenol (12)] the IC50 was 0.785 µM. Compound `Sc1nnc(N=Cc2ccccc2)s1` [2-(Benzylideneamino)-5-mercapto-1,3,4-thiadiazole (1)] has an IC50 of 49.2 µM. In the case of `COc1cc(C=Nc2nnc(S)s2)cc(OC)c1O` [4-(((5-Mercapto-1,3,4-thiadiazol-2-yl)imino)methyl)-2,6-dimethoxyphenol (15)], the IC50 is reported as 0.473 µM. For `COc1cc(C=Nc2nnc(S)s2)ccc1O` [4-(((5-Mercapto-1,3,4-thiadiazol-2-yl)imino)methyl)-2-methoxyphenol (14)], the IC50 was 0.036 µM. Compound `Oc1ccc(C=Nc2nnc(S)s2)c(O)c1` [4-(((5-Mercapto-1,3,4-thiadiazol-2-yl)imino)methyl)benzene-1,3-diol (13)] has an IC50 of 0.255 µM. `Oc1ccc(Br)cc1C=Nc1nnc(S)s1` [4-Bromo-2-(((5-mercapto-1,3,4-thiadiazol-2-yl)imino)methyl)phenol (7)] gave an IC50 of 1.97 µM. With `Oc1ccc(Cl)cc1C=Nc1nnc(S)s1` [4-Chloro-2-(((5-mercapto-1,3,4-thiadiazol-2-yl)imino)methyl)phenol (6)] the IC50 was 1.72 µM.
